Measured values as given in patent US20200129509A1, “DOSING REGIMEN” (Cyclacel Limited, priority 2018, published 2020).
Read-outs that look alike come from different tables or passages of the source.

Assays:
AML cell lines = assay: Combination of CNDAC with hypomethylating agents in AML cell lines; format: cell-based; settings: more apparent if cells are treated with hypomethylating agents first
Protocol: Previous studies by the applicant have shown that in AML cell lines, the active metabolite of sapacitabine, CNDAC, is synergistic with hypomethylating agents and the synergy is more apparent if cells are treated with hypomethylating agents first. The present invention relates to the identification of new and previously undefined subgroups of AML patients for which treatment with an alternating regimen of sapacitabine and decitabine is particularly effective.

[1] = system: cell line that is resistant to cytarabine; settings: cited from earlier work
colon cancer = settings: model of colon cancer; cited from earlier work
[2] = system: patients with a variety of cancers; settings: phase I, humans; cited from earlier work
[3] = Antecedent MDS/MPN No and WBC ≥10,000
[4] = Antecedent MDS/MPN Yes and WBC <10,000
[5] = SWOG Not unfavourable and WBC <10,000
[6] = SWOG Unfavourable and WBC ≥10,000
[7] = all randomized patients (n=241 per arm)

Description for AML patients: For 482 patients randomized to receive decitabine/sapacitabine (n=241) vs. decitabine only (n=241), randomization was stratified by the presence of antecedent MDS or MPN, peripheral white blood cell count (WBC <10,000 vs. ≥10,000) and bone marrow blast percentage (≥50% vs. <50%).

With `N#C[C@H]1[C@H](O)[C@@H](CO)O[C@H]1n1ccc(N)nc1=O` [CNDAC, 2′-C-cyano-2′-deoxy-1-β-D-arabino-pentofuranosyl cytosine] the “interaction with hypomethylating agents” value (AML cell lines) was “synergistic”.

In the case of `Nc1ccn([C@@H]2O[C@H](CO)[C@@H](O)[C@@H]2O)c(=O)n1` [cytarabine], the IC50 ([1]; after 5-azacitidine (dCK upregulation)) is given as 0.55 µM and the IC50 ([1]; before 5-azacitidine) is given as 12.5 µM.

In the case of `CCCCCCCCCCCCCCCC(=O)Nc1ccn([C@@H]2O[C@H](CO)[C@@H](O)[C@@H]2C#N)c(=O)n1` [Sapacitabine, 1-(2-C-cyano-2-deoxy-β-D-arabino-pentofuranosyl)-N^4-palmitoyl cytosine], the anticancer activity (colon cancer) is given as “strong anticancer activity”, the “increasing survival and preventing spread of colon cancer metastases to the liver, compared with gemcitabine or 5-FU” value (colon cancer) is given as “superior to either gemcitabine or 5-FU” and the dose-limiting toxicity [2] is given as “myelosuppression”. The tolerability [2] was “well tolerated”.

In the case of `Nc1ncn([C@H]2C[C@H](O)[C@@H](CO)O2)c(=O)n1` [Decitabine, 4-amino-1-(2-deoxy-β-D-erythro-pentofuranosyl)-1,3,5-triazin-2(1H)-one], the 1-year survival (AML patients; [3]) is reported as 36.7%, the CR rate (AML patients; [3]) is reported as 18.4% and the Median overall survival (AML patients; [3]) is reported as 5.5 months. It also gave a 1-year survival (AML patients; [4]) of 27.5%, a CR rate (AML patients; [4]) of 2.5% and a Median overall survival (AML patients; [4]) of 4.9 months. The 1-year survival (AML patients; Antecedent MDS/MPN: No) was 35.5%, the CR median duration (AML patients; Antecedent MDS/MPN: No) was 10.4 months and the CR rate (AML patients; Antecedent MDS/MPN: No) was 12.9%. For the same molecule, the Median overall survival (AML patients; Antecedent MDS/MPN: No) was 6.7 months, the 1-year survival (AML patients; Antecedent MDS/MPN: Yes) was 32.9% and the CR median duration (AML patients; Antecedent MDS/MPN: Yes) was 7.1 months. It also gave a CR rate (AML patients; Antecedent MDS/MPN: Yes) of 5.7%, a Median overall survival (AML patients; Antecedent MDS/MPN: Yes) of 5.0 months and a 1-year survival (AML patients; [5]) of 31.8%. For the same molecule, the CR rate (AML patients; [5]) was 5.7%, the Median overall survival (AML patients; [5]) was 5.6 months and the 1-year survival (AML patients; [6]) was 30.0%. It also gave a CR rate (AML patients; [6]) of 0%, a Median overall survival (AML patients; [6]) of 3.0 months and a 1-year survival (AML patients; SWOG category Not Unfavourable) of 35.9%. For the same molecule, the CR rate (AML patients; SWOG category Not Unfavourable) was 11.6%, the Median overall survival (AML patients; SWOG category Not Unfavourable) was 5.7 months and the 1-year survival (AML patients; SWOG category Unfavourable) was 33.0%. The CR rate (AML patients; SWOG category Unfavourable) was 9.6%, the Median overall survival (AML patients; SWOG category Unfavourable) was 5.7 months and the “Patients aged 80 and over, median overall survival” value (AML patients; aged 80 and over, <10,000 WBC) was 4.2 months. For the same molecule, the Median overall survival (AML patients; [7]) was 5.7 months, the “patients achieved CR” value (AML patients; [7]) was 10.8% and the 1-year survival (AML patients; patients with <10,000 WBC) was 32.9%. For the same molecule, the CR median duration (AML patients; patients with <10,000 WBC) was 10.4 months, the CR rate (AML patients; patients with <10,000 WBC) was 8.6% and the Median overall survival (AML patients; patients with <10,000 WBC) was 5.8 months. For the same molecule, the 1-year survival (AML patients; patients with ≥10,000 WBC) was 38.5%, the CR median duration (AML patients; patients with ≥10,000 WBC) was 10.1 months and the CR rate (AML patients; patients with ≥10,000 WBC) was 15.2%. For the same molecule, the Median overall survival (AML patients; patients with ≥10,000 WBC) was 5.5 months.
